In PubChem BioAssay (NCI):
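Five concentrations, 48 hours, 96-well plates. At the GI50, growth is halved. TGI: total growth inhibition.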

Columns and labels:
Assay in all cases: NCI tumour cell line growth inhibition, 48 h
CAKI-1 renal = test system: CAKI-1 renal
HCT-15 colon = test system: HCT-15 colon
M14 melanoma = test system: M14 melanoma
NCI-H226 lung = test system: NCI-H226 lung
OVCAR-4 ovarian = test system: OVCAR-4 ovarian
SF-268 CNS = test system: SF-268 CNS
SK-MEL-2 melanoma = test system: SK-MEL-2 melanoma
SNB-19 CNS = test system: SNB-19 CNS
T-47D breast = test system: T-47D breast
U251 CNS = test system: U251 CNS

Row | SMILES | GI50 (CAKI-1 renal) [nM] | TGI (CAKI-1 renal) [µM] | GI50 (HCT-15 colon) [nM] | TGI (HCT-15 colon) [µM] | GI50 (M14 melanoma) [nM] | TGI (M14 melanoma) [µM] | GI50 (NCI-H226 lung) [nM] | TGI (NCI-H226 lung) [µM] | GI50 (OVCAR-4 ovarian) [µM] | TGI (OVCAR-4 ovarian) [µM] | GI50 (SF-268 CNS) [nM] | TGI (SF-268 CNS) [µM] | GI50 (SK-MEL-2 melanoma) [nM] | TGI (SK-MEL-2 melanoma) [µM] | GI50 (SNB-19 CNS) [nM] | TGI (SNB-19 CNS) [µM] | GI50 (T-47D breast) [nM] | TGI (T-47D breast) [µM] | GI50 (U251 CNS) [nM] | TGI (U251 CNS) [µM]
1 | C=CCSc1n[nH]c(-c2cccs2)n1 | > 100000 | > 100 | > 100000 | > 100 | > 100000 | > 100 | > 100000 | > 100 | > 100 | > 100 | > 100000 | > 100 | > 100000 | > 100 | > 100000 | > 100 | > 100000 | > 100 | > 100000 | > 100
2 | C=C1CC2(OC1=O)c1ccccc1CCc1ccccc12 | – | 3.82 | – | 3.6 | – | 3.91 | – | 26.8 | – | 4.65 | – | 4.54 | – | 12.8 | – | 15.6 | – | 3.6 | – | 18.1
3 | CC1=COC2=C(C)C(=O)C(=O)c3c(C)ccc1c32 | – | > 63.4 | – | 11.5 | – | 13.8 | – | 68.9 | – | 13.5 | – | 36.6 | – | > 40.1 | – | > 40.5 | – | 27.7 | – | > 44.7
4 | N#Cc1c(NC(=O)CCC(=O)O)ccc2ccccc12 | – | > 100 | – | > 100 | – | > 100 | – | > 100 | – | > 100 | – | > 100 | – | > 100 | – | > 100 | – | > 100 | – | > 100
5 | CSC(=S)NN=C1CCCCC1 | – | 65.2 | – | > 100 | – | 38.7 | – | 42.4 | – | > 100 | – | > 100 | – | > 100 | – | > 100 | – | > 100 | – | > 100
6 | Nc1cc(C(F)F)c(-c2nc(N3[C@@H]4CC[C@H]3COC4)nc(N3[C@@H]4CC[C@H]3COC4)n2)cn1 | 188 | 3.21 | 345 | > 100 | 295 | 23.9 | 244 | > 21.9 | 0.191 | 2.03 | 374 | > 100 | 388 | 4.96 | 706 | > 100 | 53.3 | 0.41 | 501 | > 100
7 | COc1ccc2[nH]cc(/C=C3\C(=O)Nc4ccccc43)c2c1 | 4120 | 26.4 | 3860 | 17.5 | 2990 | 14.2 | 7650 | 35.9 | 6.21 | 60.3 | 5920 | 29.9 | 10200 | 29.2 | 8700 | > 100 | 4910 | 30.3 | 6120 | 21.2
8 | CCOC(=O)C(=Cc1ccc(Br)cc1)C(=O)OCC | 1760 | 5.59 | 1440 | 3.5 | 1800 | 3.68 | 1960 | 5.5 | 3.06 | 10.4 | 1910 | 3.95 | 2020 | 4.39 | 2470 | 7.55 | 2120 | 6 | 1430 | 2.98
